Data taken from patent publication US6472433B2, “Method for treatment of inflammation with R-NSAIDS” (Loma Linda University Medical Center, priority 1999, dated 2002).

Key:
[1] = system: carrageenan-induced paw edema; test: Carrageenan paw test (hind paw edema, plethysmometer); format: in vivo, male Long Evans derived rats; details: for Result (Reduction of Edema): 1 h before carrageenan, paw volume 3 h after injection
Experimental: In this test, the test compound is administered to several rats. Thereafter, a paw on each rat is injected with a solution of carrageenan in order to induce edema in the paw as a measure of inflammation. After three hours, the volume of the paw is measured using a plethysmometer. Reduction of edema by 30% or more, as compared to a control group which was not given the test compound, is considered indicative of anti-inflammatory activity.
This very pure form of R-flurbiprofen, was tested for anti-inflammatory activity by the carrageenan paw test. Seven groups of eight male Long Evans derived rats weighing 150±20 grams were fasted overnight. One hour after oral administration a suspension of the test substance in 2% Tween 80, as documented in Table 1 below, the right hind paw of each rat was injected intraplantarly with 0.1 ml of a 1% suspension of carrageenan. Three hours after injection, the hind paw volume was measured using a plethysmometer and recorded.

[2] = system: carrageenan-induced paw edema; details: cited from earlier work; for reduction of edema: dosage of 0.3 mg/kg, enantiomeric purity not disclosed
[3] = humans; cited from earlier work

## CC(=O)Oc1ccccc1C(=O)O [Aspirin, reference compound]
[1]; 150 mg/kg oral
  Anti-Inflammatory Activity: Yes (Reduction of edema by 30% or more, as compared to a control group which was not given the test compound, is considered indicative of anti-inflammatory activity)
  Result (Reduction of Edema): 42%

## C[C@@H](C(=O)O)c1ccc(-c2ccccc2)c(F)c1 [R-Flurbiprofen, R-flurbiprofen]
[1]; 5 mg/kg oral
  Anti-Inflammatory Activity: Yes (Reduction of edema by 30% or more, as compared to a control group which was not given the test compound, is considered indicative of anti-inflammatory activity)
  Result (Reduction of Edema): 30%
[1]; 10 mg/kg oral
  Anti-Inflammatory Activity: Yes (Reduction of edema by 30% or more, as compared to a control group which was not given the test compound, is considered indicative of anti-inflammatory activity)
  Result (Reduction of Edema): 41%
[1]; 20 mg/kg oral
  Anti-Inflammatory Activity: Yes (Reduction of edema by 30% or more, as compared to a control group which was not given the test compound, is considered indicative of anti-inflammatory activity)
  Result (Reduction of Edema): 47%
[1]; 40 mg/kg oral
  Anti-Inflammatory Activity: Yes (Reduction of edema by 30% or more, as compared to a control group which was not given the test compound, is considered indicative of anti-inflammatory activity)
  Result (Reduction of Edema): 51%
[2]
  reduction of edema: 18%
[2]; highest dose, 2.5 mg/kg (not at 0.1, 0.3, 1 mg/kg)
  reduction in inflammation: statistically significant reduction in inflammation
[3]
  S-enantiomer in circulation at steady state (formed by inversion of the R-enantiomer): 1.5%

## CCc1cccc2c3c([nH]c12)[C@@](CC)(CC(=O)O)OCC3 [R-etodolac]
[3]
  S-enantiomer in circulation at steady state (formed by inversion of the R-enantiomer): 0%

## O=C(c1ccccc1)c1ccc2n1CC[C@H]2C(=O)O [R-ketorolac]
[3]
  S-enantiomer in circulation at steady state (formed by inversion of the R-enantiomer): 6%

## C[C@H](C(=O)O)c1ccc(-c2ccccc2)c(F)c1 [S-flurbiprofen, reference compound]
[2]
  reduction of edema: 64%
